Drawing on PMC8286840, “Identifying SARS-CoV-2 antiviral compounds by screening for small molecule inhibitors of Nsp3 papain-like protease” (Biochemical Journal, 2021), this text covers remaining activity for 30 molecules.

Structures can show the parent of a compound that is named as a salt. Where two headings read alike, the source gives them in different places. Where a SMILES comes first, the peptide text is derived from it. [ ]: non-standard residue; d: D form. The star is where a group is joined. Benzoyl(4-tBu) = CC(C)(C)c1ccc(C(=O)*)cc1; Lys(Et2) = CCN(CC)CCCC[C@H](N)C(=O)O

The target of test [1] is T1, SARS-CoV-2 PLpro (nsp3 1564–1878) (Severe acute respiratory syndrome coronavirus 2, UniProt P0DTD1). The test is described as follows: biochemical. Also on record: FRET-quenched peptide (Pro3) cleavage by PLpro, 10 min pre-incubation, slope over 20 min, normalised to no-compound control. The conditions noted are these: low concentration screen, read-out: % of control remaining.
Procedure: The plates were organized with columns 3–22 containing the compounds; the remaining columns were used for reaction controls including substrate only and substrate with enzyme but no compound (Figure 3Aii). The PLpro enzyme was pre-incubated with the compounds for 10 min, and then the reaction was initiated by the addition of substrate. […] We incubated the inhibitors with PLpro before the enzymatic reaction so that the slow-binding inhibitors will not be missed out [21]. […] Fluorescence was read on a Spark multimode microplate reader (Tecan) with an excitation wavelength at 330 nm and emission wavelength at 420 nm. […] An amount of 5 µl of the enzyme was pre-incubated with compounds for 10 min before the addition of 15 µl substrate. Fluorescence was monitored at 2 min for 20 min with 3 min intervals giving a total of seven readings.

Test [2] addresses T1, SARS-CoV-2 PLpro (nsp3 1564–1878). The test is described as follows: biochemical. More on the design: FRET-quenched peptide (Pro3) cleavage by PLpro, 10 min pre-incubation, slope over 20 min, normalised to no-compound control. The conditions noted are these: high concentration screen, read-out: % of control remaining.

As to `N#CC(=C(/N)Sc1ccccc1N)/C(C#N)=C(\N)Sc1ccccc1N` [U0126 - 1,4-Diamino-2,3-dicyano-1,4-bis[2-aminophenylthio]butadiene], the remaining activity at 1.25 µM in test [1] (Well no.=2346) worked out at 96.1%. For the same molecule, the remaining activity at 3.75 µM in test [2] (Well no.=2346) was determined as 96.8%.
On to `N#CC(=C(/N)Sc1ccccc1N)/C(C#N)=C(\N)Sc1ccccc1N` [U0126], for which the remaining activity at 1.25 µM in test [1] (Well no.=1240) turned out to be 99.2%. In addition, the remaining activity at 3.75 µM in test [2] (Well no.=1240) is 101%.
Consider `C[C@]12C=CC(=O)C=C1CC[C@@H]1C2=CC[C@]2(C)[C@@H](C(=O)CN3CCN(c4cc(N5CCCC5)nc(N5CCCC5)n4)CC3)CC[C@@H]12` [U74389G maleate], for which the remaining activity at 1.25 µM in test [1] (Well no.=3905) came to 103%. Further, the remaining activity at 3.75 µM in test [2] (Well no.=3905) amounted to 98.2%.
Take `NS(=O)(=O)c1ccc(NC(=O)Nc2ccc(F)cc2)cc1` [U-104]: the remaining activity at 1.25 µM in test [1] (Well no.=8246) came out at 98%; in test [1] (Well no.=8566), 103%. In addition, the values for the remaining activity at 3.75 µM in test [2] (Well no.=8246) and in test [2] (Well no.=8566) were 93.1% and 103%, respectively.
Take `COc1ccc2c(c1)CC[C@@H]1[C@@H]2CC[C@]2(C)[C@@H](NCCCCCCN3C(=O)C=CC3=O)CC[C@@H]12` [U-73122 hydrate]: the remaining activity at 1.25 µM in test [1] (Well no.=5562) was found to be 93%. The remaining activity at 3.75 µM in test [2] (Well no.=5562) amounted to 93.8%.
As for `COc1ccc2c(c1)CC[C@@H]1[C@@H]2CC[C@]2(C)[C@@H](NCCCCCCN3C(=O)C=CC3=O)CC[C@@H]12` [U-73122], the remaining activity at 1.25 µM in test [1] (Well no.=1332) amounted to 103%. In test [2] (Well no.=1332), the remaining activity at 3.75 µM stood at 105%.
As to `COc1ccc2c(c1)CC[C@@H]1[C@@H]2CC[C@]2(C)[C@@H](NCCCCCCN3C(=O)CCC3=O)CC[C@@H]12` [U-73343], the remaining activity at 1.25 µM in test [1] (Well no.=1380) is 101%. Also, in test [2] (Well no.=1380), the remaining activity at 3.75 µM worked out at 102%.
`C[C@]12C=CC(=O)C=C1CC[C@@H]1C2=CC[C@]2(C)[C@@H](C(=O)CN3CCN(c4cc(N5CCCC5)nc(N5CCCC5)n4)CC3)CC[C@@H]12` [U-74389G maleate]: the remaining activity at 1.25 µM in test [1] (Well no.=1236) came to 104%. For the same molecule, the remaining activity at 3.75 µM in test [2] (Well no.=1236) stood at 106%.
Turning to `Cc1c(C)c2c(c(C)c1O)CCC(C)(CN1CCN(c3cc(N4CCCC4)nc(N4CCCC4)n3)CC1)O2` (stereo not drawn) [U-83836 dihydrochloride], the remaining activity at 1.25 µM in test [1] (Well no.=1284) worked out at 105%. For the same molecule, in test [2] (Well no.=1284), the remaining activity at 3.75 µM amounted to 106%.
`CCCN(CCC)C1Cc2cc(OC)c(OC)cc2C1` [U-99194A maleate]: in test [1] (Well no.=1192), the remaining activity at 1.25 µM turned out to be 100%. Also, the remaining activity at 3.75 µM in test [2] (Well no.=1192) came to 99.6%.
With `CC(C)Oc1cccnc1N(C)C1CCN(Cc2ccccc2)CC1` [U-101958 maleate], the remaining activity at 1.25 µM in test [1] (Well no.=1526) was 93.8%. In addition, in test [2] (Well no.=1526), the remaining activity at 3.75 µM was 92.1%.
Consider `O=S(=O)(NCCN1CCNCC1)c1ccc(NC2CCCCC2)c(NCc2ccccc2)c1` [UAMC-3203 hydrochloride], for which the remaining activity at 1.25 µM in test [1] (Well no.=6780) came out at 105%. Also, the remaining activity at 3.75 µM in test [2] (Well no.=6780) is 102%.
For the molecule `CN[C@@H]1C[C@H]2O[C@@](C)([C@@H]1OC)n1c3ccccc3c3c4c(c5c6ccccc6n2c5c31)C(=O)N[C@H]4O` [UCN-01], the remaining activity at 1.25 µM in test [1] (Well no.=2587) worked out at 95.7%. Also, the remaining activity at 3.75 µM in test [2] (Well no.=2587) is 97.5%.
Consider `Brc1c(NC2=NCCN2)ccc2nccnc12` [UK 14,304 (tartrate)], for which the remaining activity at 1.25 µM in test [1] (Well no.=6572) was determined as 98.5%. The remaining activity at 3.75 µM in test [2] (Well no.=6572) was found to be 102%.
`Brc1c(NC2=NCCN2)ccc2nccnc12` [UK 14,304]: in test [1] (Well no.=1238), the remaining activity at 1.25 µM was 98.9%. Besides, the remaining activity at 3.75 µM in test [2] (Well no.=1238) worked out at 97.9%.
With `NC(=O)c1noc([C@H](CCCC2CCCCC2)CC(=O)NO)n1` [UK 383367], the remaining activity at 1.25 µM in test [1] (Well no.=8384) is 90.4%. The remaining activity at 3.75 µM in test [2] (Well no.=8384) amounted to 90.6%.
With `NC(=O)c1noc([C@H](CCCC2CCCCC2)CC(=O)NO)n1` [UK-383,367], in test [1] (Well no.=5839), the remaining activity at 1.25 µM was 102%. Also, the remaining activity at 3.75 µM in test [2] (Well no.=5839) came to 103%.
`O=C(O)CSc1cc(NS(=O)(=O)c2ccc(Br)cc2)c2ccccc2c1O` [UMI-77]: in test [1] (Well no.=6454), the remaining activity at 1.25 µM is 95.1%. Besides, the remaining activity at 3.75 µM in test [2] (Well no.=6454) came out at 93.1%.
On to `CN(C)CCN1C(=O)c2cccc3cc(NC(N)=O)cc(c23)C1=O` [UNBS5162], for which the remaining activity at 1.25 µM stood at 98.3% in test [1] (Well no.=6953) and 109% in test [1] (Well no.=8453). Further, the remaining activity at 3.75 µM in test [2] (Well no.=6953) is 98%; in test [2] (Well no.=8453), 112%.
For the molecule `COc1cc2c(NC3CCN(C(C)C)CC3)nc(N3CCC(F)(F)CC3)nc2cc1OCCCN1CCCC1` [UNC0642], in test [1] (Well no.=7187), the remaining activity at 1.25 µM is 92.5%. Also, the remaining activity at 3.75 µM in test [2] (Well no.=7187) was determined as 86.5%.
For the molecule `O=C(c1ccc(C(=O)N2CCC(N3CCCC3)CC2)c(Nc2ccccc2)c1)N1CCC(N2CCCC2)CC1` [UNC1215], the remaining activity at 1.25 µM in test [1] (Well no.=5417) was 98.6%. Besides, the remaining activity at 3.75 µM in test [2] (Well no.=5417) was found to be 100%.
For the molecule `CCN(CC)CCCC[C@H](NC(=O)[C@H](CC(C)C)NC(=O)[C@H](C)NC(=O)[C@H](Cc1ccccc1)NC(=O)c1ccc(C(C)(C)C)cc1)C(=O)N[C@@H](CO)C(=O)OC` [UNC3866] ({Benzoyl(4-tBu)}-FAL[Lys(Et2)]S-OMe), in test [1] (Well no.=8220), the remaining activity at 1.25 µM is 101%. In addition, in test [2] (Well no.=8220), the remaining activity at 3.75 µM is 103%.
For the molecule `O=C(COc1cccc2c(=O)[nH]ccc12)c1ccccc1` [UPF 1069], in test [1] (Well no.=4828), the remaining activity at 1.25 µM is 94.8%. For the same molecule, the remaining activity at 3.75 µM in test [2] (Well no.=4828) turned out to be 96.4%.
For `NC(=O)c1cccc(-c2cccc(OC(=O)NC3CCCCC3)c2)c1` [URB597], the results for the remaining activity at 1.25 µM in test [1] (Well no.=5889) and in test [1] (Well no.=8102) were 109% and 95.4%, respectively. The remaining activity at 3.75 µM is 109% in test [2] (Well no.=5889) and 94.7% in test [2] (Well no.=8102).
In the case of `O=C(Nc1cccc(-c2ccccc2)c1)OC1CCCCC1` [URB602], the remaining activity at 1.25 µM in test [1] (Well no.=5392) is 99.5%. The remaining activity at 3.75 µM in test [2] (Well no.=5392) was 105%.
For `CC(C)N1CCC(N2CCCN(c3cccc(C(=O)Nc4ccncc4)n3)CC2)CC1` [USL311], the remaining activity at 1.25 µM in test [1] (Well no.=8707) worked out at 99.4%. Further, in test [2] (Well no.=8707), the remaining activity at 3.75 µM was 103%.
As to `O=C1/C(=C/c2ccc([N+](=O)[O-])cc2)CS(=O)(=O)C/C1=C\c1ccc([N+](=O)[O-])cc1` [Ubiquitin Isopeptidase Inhibitor I, G5], in test [1] (Well no.=6388), the remaining activity at 1.25 µM worked out at 93.2%. In test [2] (Well no.=6388), the remaining activity at 3.75 µM was 95.7%.
As to `CC(=O)[C@@]1(O)CC[C@H]2[C@@H]3CCC4=CC(=O)CCC4=C3[C@@H](c3ccc(N(C)C)cc3)C[C@@]21C` [Ulipristal], the remaining activity at 1.25 µM in test [1] (Well no.=4929) is 105%. Besides, the remaining activity at 3.75 µM in test [2] (Well no.=4929) was 104%.
In the case of `O=C(O)CCCCCCCCCC(=O)O` [Undecanedioic acid], in test [1] (Well no.=6785), the remaining activity at 1.25 µM is 102%. In addition, the remaining activity at 3.75 µM in test [2] (Well no.=6785) stood at 99.4%.
As for `CCCCCCCCCCC(=O)O` [Undecanoic acid], the remaining activity at 1.25 µM in test [1] (Well no.=4252) is 95.5%. For the same molecule, the remaining activity at 3.75 µM in test [2] (Well no.=4252) turned out to be 91.9%.
